IC50 data for 51 molecules are collected here from patent US20090239841A1, “Diaryl Ureas as CB1 Antagonists” (priority 2004, published 2009).

In general, IC50 refers to the concentration that inhibits the measured activity by half.

T1 sequence (P21554 whole entry): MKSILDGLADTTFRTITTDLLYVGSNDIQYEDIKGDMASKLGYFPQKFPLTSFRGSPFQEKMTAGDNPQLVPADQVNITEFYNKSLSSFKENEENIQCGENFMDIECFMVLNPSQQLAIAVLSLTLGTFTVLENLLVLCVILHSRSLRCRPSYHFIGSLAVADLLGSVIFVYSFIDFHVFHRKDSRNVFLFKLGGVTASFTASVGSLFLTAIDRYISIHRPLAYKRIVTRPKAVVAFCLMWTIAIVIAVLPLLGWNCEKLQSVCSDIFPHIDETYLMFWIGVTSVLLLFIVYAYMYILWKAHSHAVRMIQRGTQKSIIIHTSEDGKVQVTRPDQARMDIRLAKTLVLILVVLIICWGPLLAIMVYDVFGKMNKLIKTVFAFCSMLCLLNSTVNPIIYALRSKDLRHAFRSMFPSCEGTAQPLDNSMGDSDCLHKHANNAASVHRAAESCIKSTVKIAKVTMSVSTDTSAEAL

This assay has as its target T1, hCB1 (Homo sapiens, UniProt P21554).
T1 construct: made in house; host or cells: Sf9 insect cells (baculovirus), P2 membranes
Kind of assay: Agonist-induced GTP binding (GTPγ35S) assay at CB1, Example 8. It counts as biochemical. To be noted: IC50 at CB1, determined as described in Example 8; read-out: IC50. In outline:
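Antagonism read as inhibition of 1 nM CP55,940-stimulated GTPγ35S ([…]) binding, compounds at 10^−10 to 10^−5 M. Baculovirus-infected Sf9 membranes bearing hCB1 plus G-protein subunits, 60 min room-temperature incubation with 5 μM GDP. Filtration and scintillation counting; data as percent over basal.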
For the molecule `CC(=O)c1ccc(NC(=O)Nc2ccc(C)c(F)c2)cc1` [Compound 450, 1-(4-acetylphenyl)-3-(3-fluoro-4-methylphenyl)urea], the IC50 is less than 2 µM.

In the case of `CC(=O)c1ccc(NC(=O)Nc2ccc(F)c(C)c2)cc1` [Compound 451, 1-(4-acetylphenyl)-3-(4-fluoro-3-methylphenyl)urea], the IC50 was less than 2 µM.

For the molecule `CC(=O)c1ccc(NC(=O)Nc2ccc(F)c(F)c2)cc1` [Compound 452, 1-(4-acetylphenyl)-3-(3,4-difluorophenyl)urea], the IC50 is less than 2 µM.

Take `N#Cc1ccc(NC(=O)Nc2ccc3c(c2)CCC3)cc1` [Compound 453, 1-(4-cyanophenyl)-3-(2,3-dihydro-1H-inden-5-yl)urea]: the IC50 was less than 2 µM.

With `N#Cc1cccc(NC(=O)Nc2ccc3c(c2)CCC3)c1` [Compound 454, 1-(3-cyanophenyl)-3-(2,3-dihydro-1H-inden-5-yl)urea], the IC50 was less than 2 µM.

For the molecule `CC(=O)c1cccc(NC(=O)Nc2ccc3c(c2)CCC3)c1` [Compound 455, 1-(3-acetylphenyl)-3-(2,3-dihydro-1H-inden-5-yl)urea], the IC50 is less than 2 µM.

For the molecule `CC(=O)c1ccc(NC(=O)Nc2ccc3c(c2)CCC3)cc1` [Compound 456, 1-(4-acetylphenyl)-3-(2,3-dihydro-1H-inden-5-yl)urea], the IC50 was less than 2 µM.

For `Cc1ccc(NC(=O)Nc2cccc(C#N)c2)cc1Cl` [Compound 457, 1-(3-chloro-4-methylphenyl)-3-(3-cyanophenyl)urea], the IC50 was less than 2 µM.

Turning to `CC(=O)c1cccc(NC(=O)Nc2ccc(C)c(Cl)c2)c1` [Compound 458, 1-(3-acetylphenyl)-3-(3-chloro-4-methylphenyl)urea], the IC50 is less than 2 µM.

As to `Cc1cccc(NC(=O)Nc2ccc(CC#N)cc2)c1` [Compound 459, 1-[4-(cyanomethyl)phenyl]-3-(3-methylphenyl)urea], the IC50 is less than 2 µM.

`Cc1ccc(NC(=O)Nc2ccc(CC#N)cc2)cc1` [Compound 460, 1-[4-(cyanomethyl)phenyl]-3-(4-methylphenyl)urea]: the IC50 was less than 2 µM.

`N#CCc1ccc(NC(=O)Nc2cccc(F)c2)cc1` [Compound 461, 1-[4-(cyanomethyl)phenyl]-3-(3-fluorophenyl)urea]: the IC50 was less than 2 µM.

Regarding `N#CCc1ccc(NC(=O)Nc2ccc(F)cc2)cc1` [Compound 462, 1-[4-(cyanomethyl)phenyl]-3-(4-fluorophenyl)urea], the IC50 was less than 2 µM.

On to `Cc1ccc(NC(=O)Nc2ccc([N+](=O)[O-])cc2)cc1` [Compound 463, 1-(4-methylphenyl)-3-(4-nitrophenyl)urea], for which the IC50 was less than 2 µM.

As to `Cc1cccc(NC(=O)Nc2ccc(OCC#N)cc2)c1` [Compound 464, 1-[4-(cyanomethoxy)phenyl]-3-(3-methylphenyl)urea], the IC50 is less than 2 µM.

On to `Cc1ccc(NC(=O)Nc2ccc(OCC#N)cc2)cc1` [Compound 465, 1-[4-(cyanomethoxy)phenyl]-3-(4-methylphenyl)urea], for which the IC50 is less than 2 µM.

For `N#CCOc1ccc(NC(=O)Nc2cccc(F)c2)cc1` [Compound 466, 1-[4-(cyanomethoxy)phenyl]-3-(3-fluorophenyl)urea], the concentration for half-maximal inhibition (IC50) is less than 2 µM.

As for `N#CCOc1ccc(NC(=O)Nc2ccc(F)cc2)cc1` [Compound 467, 1-[4-(cyanomethoxy)phenyl]-3-(4-fluorophenyl)urea], the IC50 was less than 2 µM.

As to `CCC(=O)c1ccc(NC(=O)Nc2cccc(C)c2)cc1` [Compound 468, 1-(3-methylphenyl)-3-(4-propionylphenyl)urea], the IC50 is less than 2 µM.

With `CCC(=O)c1ccc(NC(=O)Nc2ccc(C)cc2)cc1` [Compound 469, 1-(4-methylphenyl)-3-(4-propionylphenyl)urea], the IC50 was less than 2 µM.

In the case of `COC(=O)c1ccc(NC(=O)Nc2ccc(C)cc2)cc1` [Compound 470, methyl 4-({[(4-methylphenyl)amino]carbonyl}amino)benzoate], the IC50 is less than 2 µM.

For the molecule `COC(=O)c1ccc(NC(=O)Nc2cccc(F)c2)cc1` [Compound 471, methyl 4-({[(3-fluorophenyl)amino]carbonyl}amino)benzoate], the IC50 was less than 2 µM.

With `COC(=O)c1ccc(NC(=O)Nc2ccc(F)cc2)cc1` [Compound 472, methyl 4-({[(4-fluorophenyl)amino]carbonyl)amino)benzoate], the IC50 was less than 2 µM.

Regarding `CCOC(=O)c1ccc(NC(=O)Nc2cccc(C)c2)cc1` [Compound 473, ethyl 4-({[(3-methylphenyl)amino]carbonyl}amino)benzoate], the IC50 was less than 2 µM.

For the molecule `CCOC(=O)c1ccc(NC(=O)Nc2ccc(C)cc2)cc1` [Compound 474, ethyl 4-({[(4-methylphenyl)amino]carbonyl}amino)benzoate], the IC50 was less than 2 µM.

Take `CCOC(=O)c1ccc(NC(=O)Nc2cccc(F)c2)cc1` [Compound 475, ethyl 4-({[(3-fluorophenyl)amino]carbonyl}amino)benzoate]: the IC50 is less than 2 µM.

With `CCOC(=O)c1ccc(NC(=O)Nc2ccc(F)cc2)cc1` [Compound 476, ethyl 4-({[(4-fluorophenyl)amino]carbonyl}amino)benzoate], the IC50 was less than 2 µM.

Turning to `Cc1cccc(NC(=O)Nc2ccc(C(=O)OC(C)C)cc2)c1` [Compound 477, isopropyl 4-({[(3-methylphenyl)amino]carbonyl}amino)benzoate], the IC50 was less than 2 µM.

Take `Cc1ccc(NC(=O)Nc2ccc(C(=O)OC(C)C)cc2)cc1` [Compound 478, isopropyl 4-({[(4-methylphenyl)amino]carbonyl}amino)benzoate]: the IC50 was less than 2 µM.

On to `CC(C)OC(=O)c1ccc(NC(=O)Nc2cccc(F)c2)cc1` [Compound 479, isopropyl 4-({[(3-fluorophenyl)amino]carbonyl}amino)benzoate], for which the IC50 was less than 2 µM.

Turning to `CC(C)OC(=O)c1ccc(NC(=O)Nc2ccc(F)cc2)cc1` [Compound 480, isopropyl 4-({[(4-fluorophenyl)amino]carbonyl}amino)benzoate], the 50% inhibitory concentration (IC50) is less than 2 µM.

In the case of `COC(=O)c1ccc(NC(=O)Nc2ccccc2)cc1` [Compound 481, methyl 4-[(anilinocarbonyl)amino] benzoate], the IC50 is less than 2 µM.

As to `CCc1cccc(NC(=O)Nc2ccc(CC#N)cc2)c1` [Compound 482, 1-[4-(cyanomethyl)phenyl]-3-(3-ethylphenyl)urea], the IC50 was less than 2 µM.

As to `CCc1ccc(NC(=O)Nc2ccc(CC#N)cc2)cc1` [Compound 483, 1-[4-(cyanomethyl)phenyl]-3-(4-ethylphenyl)urea], the IC50 is less than 2 µM.

For `N#CCc1ccc(NC(=O)Nc2cccc(Cl)c2)cc1` [Compound 484, 1-(3-chlorophenyl)-3-[4-(cyanomethyl)phenyl]urea], the IC50 was less than 2 µM.

Regarding `N#CCc1ccc(NC(=O)Nc2ccc(Cl)cc2)cc1` [Compound 485, 1-(4-chlorophenyl)-3-[4-(cyanomethyl)phenyl]urea], the IC50 is less than 2 µM.

Regarding `CCc1ccc(NC(=O)Nc2ccc([N+](=O)[O-])cc2)cc1` [Compound 487, 1-(4-ethylphenyl)-3-(4-nitrophenyl)urea], the IC50 was less than 2 µM.

For the molecule `CCc1cccc(NC(=O)Nc2ccc(OCC#N)cc2)c1` [Compound 488, 1-[4-(cyanomethoxy)phenyl]-3-(3-ethylphenyl)urea], the IC50 was less than 2 µM.

Regarding `CCc1ccc(NC(=O)Nc2ccc(OCC#N)cc2)cc1` [Compound 489, N-[4-(cyanomethoxy)phenyl]-N′-(4-ethylphenyl)urea], the IC50 was less than 2 µM.

Consider `N#CCOc1ccc(NC(=O)Nc2cccc(Cl)c2)cc1` [Compound 490, 1-(3-chlorophenyl)-3-[4-(cyanomethoxy)phenyl]urea], for which the IC50 was less than 2 µM.

Turning to `CCC(=O)c1ccc(NC(=O)Nc2cccc(CC)c2)cc1` [Compound 491, 1-(3-ethylphenyl)-3-(4-propionylphenyl)urea], the concentration for half-maximal inhibition (IC50) is less than 2 µM.

Consider `CCC(=O)c1ccc(NC(=O)Nc2ccc(CC)cc2)cc1` [Compound 492, 1-(4-ethylphenyl)-3-(4-propionylphenyl)urea], for which the half-inhibitory concentration (IC50) was less than 2 µM.

For the molecule `CCC(=O)c1ccc(NC(=O)Nc2cccc(Cl)c2)cc1` [Compound 493, 1-(3-chlorophenyl)-3-(4-propionylphenyl)urea], the IC50 is less than 2 µM.

As for `CCc1cccc(NC(=O)Nc2ccc(C(=O)OC)cc2)c1` [Compound 494, methyl 4-({[(3-ethylphenyl)amino]carbonyl}amino)benzoate], the IC50 is less than 2 µM.

For the molecule `CCc1ccc(NC(=O)Nc2ccc(C(=O)OC)cc2)cc1` [Compound 495, methyl 4-({[(4-ethylphenyl)amino]carbonyl}amino)benzoate], the IC50 is less than 2 µM.

`COC(=O)c1ccc(NC(=O)Nc2ccc(Cl)cc2)cc1` [Compound 496, methyl 4-({[(4-chlorophenyl)amino]carbonyl}amino)benzoate]: the 50% inhibitory concentration (IC50) was less than 2 µM.

`CCOC(=O)c1ccc(NC(=O)Nc2cccc(CC)c2)cc1` [Compound 497, ethyl 4-({[(3-ethylphenyl)amino]carbonyl}amino)benzoate]: the half-inhibitory concentration (IC50) was less than 2 µM.

`CCOC(=O)c1ccc(NC(=O)Nc2ccc(CC)cc2)cc1` [Compound 498, ethyl 4-({[(4-ethylphenyl)amino]carbonyl}amino)benzoate]: the IC50 is less than 2 µM.

As for `CCOC(=O)c1ccc(NC(=O)Nc2cccc(Cl)c2)cc1` [Compound 499, ethyl 4-({[(3-chlorophenyl)amino]carbonyl}amino)benzoate], the IC50 is less than 2 µM.

Regarding `CCOC(=O)c1ccc(NC(=O)Nc2ccc(Cl)cc2)cc1` [Compound 500, ethyl 4-({[(4-chlorophenyl)amino]carbonyl}amino)benzoate], the IC50 was less than 2 µM.

Turning to `CCc1ccc(NC(=O)Nc2ccc(S(C)(=O)=O)cc2)cc1` [Compound 501, 1-(4-ethylphenyl)-3-[4-(methylsulfonyl)phenyl]urea], the IC50 is less than 2 µM.
